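These data come from cells grown in 96-well plates and exposed to compound for 48 hours at five concentrations. Definition used: TGI = concentration required for complete inhibition of growth.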
What was measured:
Experiment in all cases: NCI-60 cell line screen, 48 h
RPMI-8226 leukemia = tested on: RPMI-8226 leukemia
SK-OV-3 ovarian = tested on: SK-OV-3 ovarian
K-562 leukemia = tested on: K-562 leukemia
NCI-H226 lung = tested on: NCI-H226 lung
OVCAR-8 ovarian = tested on: OVCAR-8 ovarian
SNB-19 CNS = tested on: SNB-19 CNS
NCI-H23 lung = tested on: NCI-H23 lung
SK-MEL-2 melanoma = tested on: SK-MEL-2 melanoma
OVCAR-4 ovarian = tested on: OVCAR-4 ovarian
HCC-2998 colon = tested on: HCC-2998 colon
M14 melanoma = tested on: M14 melanoma
SF-295 CNS = tested on: SF-295 CNS
CCRF-CEM leukemia = tested on: CCRF-CEM leukemia
HT29 colon = tested on: HT29 colon
PC-3 prostate = tested on: PC-3 prostate
SF-539 CNS = tested on: SF-539 CNS
MDA-MB-435 = tested on: MDA-MB-435
SN12C renal = tested on: SN12C renal
BT-549 breast = tested on: BT-549 breast

| SMILES | TGI (RPMI-8226 leukemia) | TGI (SK-OV-3 ovarian) | TGI (K-562 leukemia) | TGI (NCI-H226 lung) | TGI (OVCAR-8 ovarian) | TGI (SNB-19 CNS) | TGI (NCI-H23 lung) | TGI (SK-MEL-2 melanoma) | TGI (OVCAR-4 ovarian) | TGI (HCC-2998 colon) | TGI (M14 melanoma) | TGI (SF-295 CNS) | TGI (CCRF-CEM leukemia) | TGI (HT29 colon) | TGI (PC-3 prostate) | TGI (SF-539 CNS) | TGI (MDA-MB-435) | TGI (SN12C renal) | TGI (BT-549 breast) |
| --- | --- | --- | --- | --- | --- | --- | --- | --- | --- | --- | --- | --- | --- | --- | --- | --- | --- | --- | --- |
| COc1ccc(NC(=O)CC(=O)N/N=C/c2ccc(N(CCC#N)S(=O)(=O)c3ccccc3)cc2)cc1 | > 100 µM | > 100 µM | > 100 µM | > 100 µM | > 100 µM | > 100 µM | > 100 µM | > 100 µM | > 100 µM | > 100 µM | > 100 µM | > 100 µM | > 100 µM | > 100 µM |  |  |  |  |  |
| O=C1CCCCCC1CC(Sc1ccccc1)Sc1ccccc1 (stereo not drawn) | > 100 µM | > 100 µM | > 100 µM | > 100 µM | > 100 µM | > 100 µM | > 100 µM | > 100 µM | > 100 µM | > 100 µM | > 100 µM | > 100 µM | > 100 µM | > 100 µM | > 100 µM | > 100 µM | > 100 µM |  |  |
| S=C1N=C(Cl)/C(=C\c2ccco2)N1 | > 100 µM | > 100 µM | > 100 µM | > 100 µM | > 100 µM | > 100 µM | > 100 µM | > 100 µM | > 100 µM |  | > 100 µM | > 100 µM | > 100 µM | > 100 µM | > 100 µM | > 100 µM | > 100 µM | > 100 µM | > 100 µM |
| CC1C=C[C@H](Sc2ccccc2)CC[C@@]1(C)O (stereo partly drawn) | > 100 µM | > 100 µM | > 100 µM | > 100 µM | > 100 µM | > 100 µM | > 100 µM | > 100 µM |  | > 100 µM | > 100 µM |  | > 100 µM | > 100 µM |  | > 100 µM |  | > 100 µM |  |
| CC(=O)c1sc(Nc2ccc(Cl)c(Cl)c2)nc1C | > 100 µM | > 100 µM |  | > 100 µM | > 100 µM | > 100 µM | > 100 µM |  | > 100 µM | > 100 µM |  | > 100 µM |  | > 100 µM |  | > 100 µM | > 100 µM | > 100 µM | > 100 µM |
| CSc1nc2c(c(O)c(C)c(=O)n2C2OCC(OC(C)=O)C(OC(C)=O)C2OC(C)=O)c(=O)n1C (stereo not drawn) | > 100 µM | > 100 µM | > 100 µM | > 100 µM | > 100 µM | > 100 µM | > 100 µM | > 100 µM | > 100 µM |  | > 100 µM | > 100 µM | > 100 µM | > 100 µM |  | > 100 µM |  | > 100 µM |  |
| CCCC(=O)OCC1OC(n2cc(F)c(=O)[nH]c2=O)C(F)C1OC(=O)CCC (stereo not drawn) | > 100 µM | > 100 µM | > 100 µM | > 100 µM | > 100 µM |  | > 100 µM | > 100 µM | > 100 µM |  | > 100 µM | > 100 µM | > 100 µM | > 100 µM | > 100 µM | 27.5 µM | > 100 µM | > 100 µM | > 100 µM |
| O=C(Cn1c2ccc(Br)cc2c2nc3ccccc3nc21)N/N=C/c1ccccc1 |  | > 100 µM | > 100 µM | > 100 µM | > 100 µM | > 100 µM | > 100 µM | > 100 µM |  |  | > 100 µM | 84.8 µM |  | > 100 µM | > 100 µM | 53.6 µM | > 100 µM | > 100 µM | > 100 µM |
| CCCC(=O)Oc1ccc2c(C)cc(=O)oc2c1OC(=O)CCC | > 100 µM | > 100 µM | > 100 µM | > 100 µM | > 100 µM | > 100 µM | > 100 µM | > 100 µM | > 100 µM |  | > 100 µM | > 100 µM | > 100 µM | > 100 µM | > 100 µM | > 100 µM | > 100 µM | > 100 µM |  |
| CN(/N=C\c1ccc2ccccc2c1)C1=NCCN1 | 48 µM | > 100 µM | 45.2 µM | 37.8 µM | > 100 µM |  | > 100 µM | 30.9 µM | 73 µM | 29.7 µM |  | 30.4 µM | 65 µM | 31.3 µM |  | 32.8 µM | 30.1 µM |  | 29.9 µM |
| CN(NC(=O)/C(=C\c1ccco1)NC(=O)c1ccccc1)c1cn[nH]c(=O)c1Cl | 50.5 µM | > 100 µM | > 100 µM | > 100 µM | > 100 µM | > 100 µM | > 100 µM | > 100 µM | > 100 µM |  | > 100 µM | > 100 µM | 62.4 µM | > 100 µM | > 100 µM | 62 µM | > 100 µM | > 100 µM |  |
